# Laboratory results published in patent US8859819B2, “Sulphurated derivatives of resorcinol, preparation of same and cosmetic uses thereof” (Pierre Fabre Dermo-Cosmetique, priority 2009, dated 2014).
# Like-named read-outs stand apart in the source and are kept apart here.
# How the values were obtained:
# mushroom tyrosinase = molecular target: T1, mushroom tyrosinase (Agaricus bisporus, UniProt C7FF04); test: Tyrosinase inhibition test (in vitro acellular depigmenting activity); type: biochemical; conditions: class symbol; assay from 250 to 150 μM; overall tyrosinase activity (MPMOg), L-tyrosine substrate
# T1 construct: purchased Sigma T-3824
# Source text: A) Determination of the Depigmenting Activity in an in vitro Acellular Test: Tyrosinase Inhibition Test)
# This test is used to evaluate the depigmenting activity of the molecules tested. Tyrosinase is a limiting enzyme in melanogenesis.
# It belongs to the family of oxydoreductases. It has in particular the function: monophenol monooxygenase (MPMO) and polyphenol oxidase (PPO).
# It is synthesised at the level of the melanocytes. It is activated during its migration towards melanosome […]. It transforms tyrosine into DOPA then dopaquinone, which leads in fine to a polymerisation, i.e. a production of pigments (see diagram below).
# The substrate: L-tyrosine, is transformed into L-DOPA by the monophenol mono oxygenase function which is transformed by the polyphenol oxidase function from tyrosinase into dopaquinone. The latter is going to self-oxidise into dopachrome which is measured by spectrophotometry at 490 nm.
# More precisely, it is the overall tyrosinase activity (MPMOg) which is measured since it is the dopachrome in fine that is assayed. Thus the products tested on MPMOg (=measurement of the activity on PPO and MPMO) can cumulate the inhibition of the 2 functions, • inhibiting uniquely the MPMO function stricto sensus (transformation of tyrosine into DOPA) as a complement to the PPO test, • could inhibit PPO uniquely. General Experimental Conditions:
# B16-F10 cells = test: Melanin assay test in B16-F10 cells; type: cell-based, murine
# Method: B) Melanin Assay Test in B16-F10 Cells:
# This involves a test of measuring the synthesis of melanin by colorimetric assay on a murine melanoma cell line: the B16-F10 line. This test makes it possible to evaluate the depigmenting power of active ingredients.
# The B16-F10 cells are cultured in 96-well plates in DMEM medium supplemented with FCS (foetal calf serum), and incubated for 24 hours at 37° C., 5% CO2. The cells are then stimulated with 0.1 μM α-MSH (to stimulate the synthesis of melanin, the stimulation observed is around 150%) and treated for 72 hours with the active ingredients to be tested. Each concentration of active ingredient is tested at least in triplicate. The total melanin followed by the intracellular melanin dissolved in the lysis buffer are then assayed by absorbance reading at 405 nm. The total proteins are assayed in the lysate and the results are expressed in mg melanin/mg proteins. The percentage of activity is calculated as follows: […]
# A negative value indicates an inhibition, whereas a positive value indicates an induction of the synthesis of melanin.
# • B16-F10 cell line between P10 and P20 (murine melanocytes) (ATCC, CRL-6475)
# Reagents: • DMEM without phenol red (GibcoBRL, 31053-028), 200 mM Glutamax-I Supplement (GibcoBRL, 35050-038), D-PBS (GibcoBRL, 14190-094), Foetal calf serum (Invitrogen, 10270-098), Trypsine-EDTA (GibcoBRL, 25300-054), NaOH (Sigma, S8045-500G), DMSO (Sigma, 471267-1L), Nle, Phe—Melanocyte Stimulating Hormone (Sigma, M-8764), Melanin (Sigma, M-0418), BCA-Copper (Sigma, B9643 and C2284), BSA (Sigma, P0914) C) Test for the Study of the Antioxidant Capacity by Chemiluminescence (Photochem Analytik Jena) Principle: […]
# [1] = Antioxidant capacity by chemiluminescence (Photochem Analytik Jena); conditions: Trolox equivalent; lower = stronger antioxidant
# Method: This test is used to determine the antioxidant capacity of the molecules. It is a method that generates free radicals by a photochemical signal. The intensity of the oxidation is 1000 times greater than that obtained under normal conditions.
# The detection is carried out by chemiluminescence. It enables the evaluation of hydrosoluble and liposoluble anti-oxidant molecules or extracts.
# The results are expressed respectively in equivalent quantity of vitamin C or Trolox (6-hydroxy-2,5,7,8-tetramethylchroman-2-carboxylic acid). The sensitivity is of the order of a nanomole.
# The antioxidant activity studied in this test represents the capacity to trap specifically superoxide anions by chemiluminescence.
# The quantified results are expressed in Trolox equivalent (standard), i.e. in “μg of product for 1 μg of Trolox”. This signifies that a quantity×of sample is needed to obtain an activity equivalent to the activity detected for 1 μg of standard. It is an anti-oxidant power relative to a reference, which makes it possible to disregard the concentration tested.
# The superoxide radical: 02^0− is generated by a photochemical reaction: L+hv (UV)+O2→L*O2→L^0++O2^0−
# A part of the superoxide anions is quenched by the anti-oxidants. The remaining free radicals are quantified by chemiluminescence. L^0++O2^0−→N2+AP*^2−→AP^2−+hv (luminescence)
# [2] = Protection of linoleic acid following a UV stress (Fenton conditions, MDA-TBA assay); set-up: % Protection Linoleic acid under UV/Fenton: concentration or dose not given beside the values; conditions: UV + H2O2 + iron II
# Source text: D) Test of Protection of Linoleic Acid Following a UV Stress. Target: Protection of Linoleic Acid Under Fenton Conditions, UV Irradiation Linoleic acid belongs to the family of polyunsaturated fatty acids (PUFA) (AGPI). Sensitive to oxidation, linoleic acid is a favoured target for oxygenated free radicals (OFR) in biological media. When biological membranes are exposed to an oxidative stress, the components the most affected are the phospholipids constituted of PUFA and cholesterol. Their degradation leads to lipidic peroxidation and generally to destructuring. Lipidic peroxidation is a self-catalysing process which generally involves OFR. Lipidic peroxidation is in part responsible for skin ageing. The method employed to evaluate lipid peroxidation is based on the coupling of thiobarbituric acid (TBA) and secondary degradation products leading to coloured compounds detectable by spectrofluorometry. The essential secondary compound of final degradation is malondialdehyde, MDA. MDA is a carcinogenic and mutagenic aldehyde, it acts on proteins and DNA. The sample to be tested is placed in contact with linoleic acid in a weight/weight ratio. The sample undergoes an MED (Minimal Erythemal Dose) irradiation under Fenton conditions, namely in the presence of H202 and iron II in a solar simulator. Following irradiation, the reaction mixture is taken up in methanol and derivatised at 90° C. with TBA. Chromogene, the MDA-TBA complex, representative of the equimolar production of MDA is assayed by fluorimetry (excitation at 525 nm, emission at 549 nm). The results are expressed in fluorescence units, as a function of a MDA-TBA control range then expressed as concentration of the MDA-TBA complex. Then, the percentage of the starting MDA/linoleic acid (LA) ratio is determined. Then the percentage of protection of linoleic acid is determined. The product assay is expressed as weight/weight ratio, in other words in weight percentage with respect to the total quantity of linoleic acid. The maximal MDA level is determined by the condition UV+H202+iron II (F). The percentage of protection of linoleic acid represents: the % ratio of MDA under maximal stress conditions untreated over the % of MDA under stress conditions treated by the product.
# [3] = Mus musculus, B16-F10, 72 h, read-out: B16 activity results -% at X μM
# [4] = Mus musculus, B16-F10, 50 μM, α-MSH stimulated, 72 hours, negative value = inhibition of melanin synthesis, read-out: B16 activity results -% at X μM
# T1 sequence (C7FF04 1-392 limits assumed): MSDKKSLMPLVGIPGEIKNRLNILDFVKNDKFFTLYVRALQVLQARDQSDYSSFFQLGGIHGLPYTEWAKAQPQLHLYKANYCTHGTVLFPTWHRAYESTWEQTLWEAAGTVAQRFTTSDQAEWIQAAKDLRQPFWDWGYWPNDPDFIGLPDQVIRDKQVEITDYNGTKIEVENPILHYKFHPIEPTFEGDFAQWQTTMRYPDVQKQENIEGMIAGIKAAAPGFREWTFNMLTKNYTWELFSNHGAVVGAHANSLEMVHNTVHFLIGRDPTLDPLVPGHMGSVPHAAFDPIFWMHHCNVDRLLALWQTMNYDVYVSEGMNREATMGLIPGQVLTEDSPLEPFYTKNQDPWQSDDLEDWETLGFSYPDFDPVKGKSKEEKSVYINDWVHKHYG
smiles,measurement,setting,value
"CC(C)=CCC/C(C)=C/COc1cc(O)ccc1Sc1ccc(O)cc1O [Example 4, (E)-4-(2-(3,7-dimethylocta-2,6-dienyloxy)-4-hydroxyphenylthio)benzene-1,3-diol]",Tyrosinase depigmenting activity result,mushroom tyrosinase,+ + +
same,inhibition at 10 µM,B16-F10 cells; [3],35%
same,μg of sample for 1 μg of Trolox,[1],5.2 μg of sample for 1 μg of Trolox
same,% Protection Linoleic acid under UV/Fenton,[2],89%
"CC(C)=CCOc1cc(O)ccc1Sc1ccc(O)cc1O [Example 3, 4-(4-hydroxy-2-(3-methylbut-2-enyloxy)phenylthio)benzene-1,3-diol]",Tyrosinase depigmenting activity result,mushroom tyrosinase,+ + +
same,inhibition at 20 µM,B16-F10 cells; [3],41%
same,μg of sample for 1 μg of Trolox,[1],4.7 μg of sample for 1 μg of Trolox
same,% Protection Linoleic acid under UV/Fenton,[2],87%
"Oc1ccc(Sc2ccc(OCc3ccccc3)cc2O)c(O)c1 [Example 10, 4-(4-(benzyloxy)-2-hydroxyphenylthio)benzene-1,3-diol]",Tyrosinase depigmenting activity result,mushroom tyrosinase,+ + +
same,inhibition at 20 µM,B16-F10 cells; [3],20%
same,μg of sample for 1 μg of Trolox,[1],22 μg of sample for 1 μg of Trolox
same,% Protection Linoleic acid under UV/Fenton,[2],94%
"Oc1ccc(Sc2ccc(O)cc2O)c(O)c1 [Example 1, 4,4′-thiodibenzene-1,3-diol]",Tyrosinase depigmenting activity result,mushroom tyrosinase,+ + +
same,inhibition at 61 µM,"B16-F10 cells; Mus musculus, B16-F10, 61 μM, α-MSH stimulated, 72 hours, negative value = inhibition, read-out: B16 activity results -% at X μM",50%
same,μg of sample for 1 μg of Trolox,[1],23 μg of sample for 1 μg of Trolox
same,% Protection Linoleic acid under UV/Fenton,[2],90%
"O=C(CCc1ccccc1)Oc1ccc(Sc2ccc(O)cc2O)c(O)c1 [Example 18, 4-(2,4-dihydroxyphenylthio)-3-hydroxyphenyl 3-phenylpropanoate]",Tyrosinase depigmenting activity result,mushroom tyrosinase,+ + +
same,inhibition at 50 µM,B16-F10 cells; [4],20%
same,μg of sample for 1 μg of Trolox,[1],24.1 μg of sample for 1 μg of Trolox
same,% Protection Linoleic acid under UV/Fenton,[2],90%
"CCCCCCCCOc1ccc(Sc2ccc(O)cc2O)c(O)c1 [Example 8, 4-(2-hydroxy-4-(octyloxy)phenylthio)benzene-1,3-diol]",Tyrosinase depigmenting activity result,mushroom tyrosinase,+ + +
same,inhibition at 10 µM,B16-F10 cells; [3],40%
same,μg of sample for 1 μg of Trolox,[1],18.8 μg of sample for 1 μg of Trolox
same,% Protection Linoleic acid under UV/Fenton,[2],97%
"Oc1ccc(Sc2ccc(O)cc2OCc2ccccc2)c(O)c1 [Example 9, 4-(2-(benzyloxy)-4-hydroxyphenylthio)benzene-1,3-diol]",Tyrosinase depigmenting activity result,mushroom tyrosinase,+ + +
same,inhibition at 20 µM,B16-F10 cells; [3],31%
same,μg of sample for 1 μg of Trolox,[1],3.2 μg of sample for 1 μg of Trolox
same,% Protection Linoleic acid under UV/Fenton,[2],85%
"O=C(CCc1ccccc1)Oc1cc(O)ccc1Sc1ccc(O)cc1O [Example 17, 2-(2,4-dihydroxyphenylthio)-5-hydroxyphenyl 3-phenylpropanoate]",Tyrosinase depigmenting activity result,mushroom tyrosinase,+ + +
same,inhibition at 92 µM,"B16-F10 cells; Mus musculus, B16-F10, 92 μM, α-MSH stimulated, 72 hours, negative value = inhibition, read-out: B16 activity results -% at X μM",50%
same,μg of sample for 1 μg of Trolox,[1],3.9 μg of sample for 1 μg of Trolox
same,% Protection Linoleic acid under UV/Fenton,[2],87%
"CC(C)=CCC/C=C(\C)CC/C(C)=C/COc1cc(O)ccc1Sc1ccc(O)cc1O [Example 2, 4-(4-hydroxy-2-((2E,6E)-3,6,11-trimethyldodcca-2,6,10-trienyloxy)phenylthio)benzene-1,3-diol]",Tyrosinase depigmenting activity result,mushroom tyrosinase,+ +
same,B16 activity results -% at X μM,"B16-F10 cells; 14 μM, α-MSH stimulated, 72 hours, negative value = inhibition",−50% (14 μM)
same,μg of sample for 1 μg of Trolox,[1],9.7 μg of sample for 1 μg of Trolox
same,% Protection Linoleic acid under UV/Fenton,[2],92%
"CC(C)CC(=O)Oc1ccc(Sc2ccc(O)cc2O)c(O)c1 [Example 20, 4-(2,4-dihydroxyphenylthio)-3-hydroxyphenyl 3-methylbutanoate]",Tyrosinase depigmenting activity result,mushroom tyrosinase,+ + +
same,inhibition at 50 µM,B16-F10 cells; [4],24%
same,μg of sample for 1 μg of Trolox,[1],25.6 μg of sample for 1 μg of Trolox
same,% Protection Linoleic acid under UV/Fenton,[2],91%
"CCCCCCCCNC(=O)Oc1cc(O)ccc1Sc1ccc(O)cc1O [Example 24, 2-(2,4-dihydroxyphenylthio)-5-hydroxyphenyl octylcarbamate]",Tyrosinase depigmenting activity result,mushroom tyrosinase,+ + +
same,inhibition at 50 µM,B16-F10 cells; [3],26%
same,μg of sample for 1 μg of Trolox,[1],3.8 μg of sample for 1 μg of Trolox
same,% Protection Linoleic acid under UV/Fenton,[2],97%
"CCCCCCCC(=O)Oc1cc(O)ccc1Sc1ccc(O)cc1O [Example 15, 2-(2,4-dihydroxyphenylthio)-5-hydroxyphenyl octanoate]",Tyrosinase depigmenting activity result,mushroom tyrosinase,+ +
same,inhibition at 10 µM,B16-F10 cells; [3],20%
same,μg of sample for 1 μg of Trolox,[1],30 μg of sample for 1 μg of Trolox
same,% Protection Linoleic acid under UV/Fenton,[2],75%
"COc1ccc(COc2cc(O)ccc2Sc2ccc(O)cc2O)cc1 [Example 11, 4-(4-hydroxy-2-(4-methoxybenzyloxy)phenylthio)benzene-1,3-diol]",Tyrosinase depigmenting activity result,mushroom tyrosinase,+ + +
same,inhibition at 20 µM,B16-F10 cells; [3],34%
same,μg of sample for 1 μg of Trolox,[1],3.5 μg of sample for 1 μg of Trolox
same,% Protection Linoleic acid under UV/Fenton,[2],91%
"CC(C)CC(=O)Oc1cc(O)ccc1Sc1ccc(O)cc1O [Example 19, 2-(2,4-dihydroxyphenylthio)-5-hydroxyphenyl 3-methylbutanoate]",Tyrosinase depigmenting activity result,mushroom tyrosinase,+ + +
same,inhibition at 50 µM,B16-F10 cells; [4],20%
same,μg of sample for 1 μg of Trolox,[1],2.8 μg of sample for 1 μg of Trolox
same,% Protection Linoleic acid under UV/Fenton,[2],88%
